From the OligoGym collection
HELM strings list units from the 5' end as sugar, base in round brackets, then linkage (d deoxyribose, r ribose, m 2'-O-methyl, p phosphodiester). Strings are as the collection lists them; they lack the last nucleoside at the 3' end of the tested compound. [moe] = 2'-O-(2-methoxyethyl) (MOE); [sp] = phosphorothioate linkage; [m5C] = 5-methylcytosine

Molecular target: PRNP
Assay: mouse, dose not given
Conditions: ASO

Row | Substance | 3 h FOB score [score 0-7]
1 | RNA1{[moe](G)[sp].[moe](G)p.[moe](T)p.[moe](T)p.[moe](A)p.[moe]([m5C])p.d(A)[sp].d(T)[sp].d(A)[sp].d(A)[sp].d(T)[sp].d(G)[sp].d(T)[sp].d(T)[sp].d([m5C])[sp].d(A)[sp].[moe](T)p.[moe](T)[sp].[moe](T)}$$$$ (last 3' nucleoside missing) | 3.75
2 | RNA1{[moe](T)[sp].[moe](T)p.[moe]([m5C])p.[moe]([m5C])p.[moe](A)[sp].d(G)[sp].d([m5C])[sp].d(T)[sp].d(T)[sp].d([m5C])[sp].d(T)[sp].d(T)[sp].d(A)[sp].d(A)[sp].d(T)[sp].[moe](G)p.[moe]([m5C])p.[moe](A)[sp].[moe](T)}$$$$ (last 3' nucleoside missing) | 0
3 | RNA1{[moe](G)[sp].[moe]([m5C])p.[moe](T)p.[moe](T)p.[moe]([m5C])[sp].d(T)[sp].d([m5C])[sp].d(A)[sp].d(A)[sp].d(T)[sp].d(T)[sp].d(T)[sp].d(T)[sp].d(T)[sp].d([m5C])[sp].[moe]([m5C])p.[moe](A)p.[moe](A)[sp].[moe]([m5C])}$$$$ (last 3' nucleoside missing) | 0
4 | RNA1{[moe](G)[sp].[moe](G)p.[moe](T)p.[moe](T)p.[moe]([m5C])[sp].d(A)[sp].d(G)[sp].d(T)[sp].d(G)[sp].d(T)[sp].d(T)[sp].d(G)[sp].d(T)[sp].d(G)[sp].d(A)[sp].[moe]([m5C])p.[moe](A)p.[moe](A)[sp].[moe](T)}$$$$ (last 3' nucleoside missing) | 7
5 | RNA1{[moe]([m5C])[sp].[moe]([m5C])p.[moe](A)p.[moe](G)p.[moe](A)[sp].d(A)[sp].d(G)[sp].d(T)[sp].d(T)[sp].d(T)[sp].d(A)[sp].d(A)[sp].d([m5C])[sp].d(A)[sp].d(T)[sp].[moe](A)p.[moe](T)p.[moe](T)[sp].[moe](T)}$$$$ (last 3' nucleoside missing) | 0
6 | RNA1{[moe]([m5C])[sp].[moe](T)p.[moe](A)p.[moe](G)p.[moe](T)[sp].d(A)[sp].d(A)[sp].d(G)[sp].d(A)[sp].d(A)[sp].d([m5C])[sp].d(T)[sp].d(T)[sp].d(A)[sp].d(T)[sp].[moe]([m5C])p.[moe]([m5C])p.[moe]([m5C])[sp].[moe](A)}$$$$ (last 3' nucleoside missing) | 0
7 | RNA1{[moe]([m5C])[sp].[moe](T)p.[moe](A)p.[moe](T)p.[moe](G)p.d(T)[sp].d(T)[sp].d(T)[sp].d(T)[sp].d([m5C])[sp].d([m5C])[sp].d(A)[sp].d(G)[sp].d(T)[sp].[moe](G)[sp].[moe]([m5C])p.[moe]([m5C])p.[moe]([m5C])}$$$$ (last 3' nucleoside missing) | 0.75
8 | RNA1{[moe](G)[sp].[moe]([m5C])p.[moe]([m5C])p.[moe](A)p.[moe](A)[sp].d(T)[sp].d(A)[sp].d(A)[sp].d(T)[sp].d(A)[sp].d(A)[sp].d([m5C])[sp].d(A)[sp].d(T)[sp].d(T)[sp].[moe](G)p.[moe]([m5C])p.[moe](A)[sp].[moe](G)}$$$$ (last 3' nucleoside missing) | 0
9 | RNA1{[moe](T)[sp].[moe](G)p.[moe](G)p.[moe]([m5C])p.[moe](T)[sp].d(T)[sp].d(A)[sp].d([m5C])[sp].d(T)[sp].d([m5C])[sp].d(G)[sp].d(G)[sp].d([m5C])[sp].d(T)[sp].d(T)[sp].[moe](G)p.[moe](T)p.[moe](T)[sp].[moe]([m5C])}$$$$ (last 3' nucleoside missing) | 3.75
10 | RNA1{[moe]([m5C])[sp].[moe](T)p.[moe](T)p.[moe](A)p.[moe](T)[sp].d(T)[sp].d(A)[sp].d(T)[sp].d(T)[sp].d([m5C])[sp].d(A)[sp].d(T)[sp].d(G)[sp].d(T)[sp].d(T)[sp].[moe]([m5C])p.[moe](T)p.[moe]([m5C])[sp].[moe]([m5C])}$$$$ (last 3' nucleoside missing) | 1.25
11 | RNA1{[moe](G)[sp].[moe](T)p.[moe](T)p.[moe](G)p.[moe](A)[sp].d(T)[sp].d(T)[sp].d(T)[sp].d(T)[sp].d(T)[sp].d([m5C])[sp].d([m5C])[sp].d(A)[sp].d(G)[sp].d(A)[sp].[moe](A)p.[moe](G)p.[moe](T)[sp].[moe](T)}$$$$ (last 3' nucleoside missing) | 3.25
12 | RNA1{[moe](T)[sp].[moe](T)p.[moe](G)p.[moe]([m5C])p.[moe](A)[sp].d(G)[sp].d(G)[sp].d(T)[sp].d(A)[sp].d(A)[sp].d(G)[sp].d(T)[sp].d(T)[sp].d([m5C])[sp].d(T)[sp].[moe]([m5C])p.[moe](A)p.[moe](G)[sp].[moe](G)}$$$$ (last 3' nucleoside missing) | 5.25
13 | RNA1{[moe]([m5C])[sp].[moe](G)p.[moe](G)p.[moe](G)p.[moe](T)[sp].d(T)[sp].d(T)[sp].d(T)[sp].d([m5C])[sp].d(T)[sp].d(T)[sp].d(A)[sp].d(A)[sp].d(A)[sp].d(A)[sp].[moe](T)p.[moe](G)p.[moe](G)[sp].[moe](A)}$$$$ (last 3' nucleoside missing) | 2
14 | RNA1{[moe]([m5C])[sp].[moe](T)p.[moe](A)p.[moe](T)p.[moe](G)[sp].d(T)[sp].d(T)[sp].d(T)[sp].d(T)[sp].d([m5C])[sp].d([m5C])[sp].d(A)[sp].d(G)[sp].[moe](T)p.[moe](G)p.[moe]([m5C])[sp].[moe]([m5C])}$$$$ (last 3' nucleoside missing) | 0
15 | RNA1{[moe](G)[sp].[moe](A)p.[moe](T)p.[moe](T)p.[moe](G)[sp].d(T)[sp].d([m5C])[sp].d(T)[sp].d([m5C])[sp].d([m5C])[sp].d([m5C])[sp].d(T)[sp].d(A)[sp].d(T)[sp].d(T)[sp].[moe]([m5C])p.[moe](T)p.[moe](T)[sp].[moe](T)}$$$$ (last 3' nucleoside missing) | 5.5
16 | RNA1{[moe](G)[sp].[moe](G)p.[moe](T)p.[moe](T)p.[moe](T)[sp].d(T)[sp].d(T)[sp].d(G)[sp].d(G)[sp].d([m5C])[sp].d(T)[sp].d(T)[sp].d(A)[sp].d([m5C])[sp].d(T)[sp].[moe]([m5C])p.[moe](G)p.[moe](G)[sp].[moe]([m5C])}$$$$ (last 3' nucleoside missing) | 4
17 | RNA1{[moe]([m5C])[sp].[moe](A)p.[moe](A)p.[moe](T)p.[moe](T)[sp].d(G)[sp].d(T)[sp].d(T)[sp].d(T)[sp].d(T)[sp].d(T)[sp].d([m5C])[sp].d(T)[sp].d([m5C])[sp].d(T)[sp].[moe]([m5C])p.[moe](T)p.[moe]([m5C])[sp].[moe](T)}$$$$ (last 3' nucleoside missing) | 0
18 | RNA1{[moe]([m5C])[sp].[moe](G)p.[moe](T)p.d([m5C])[sp].d([m5C])[sp].d(A)[sp].d(T)[sp].d(T)[sp].d(T)[sp].d(T)[sp].d([m5C])[sp].d(T)[sp].d(G)[sp].[moe](T)p.[moe](G)p.[moe]([m5C])p.[moe](T)p.[moe](T)[sp].[moe](T)}$$$$ (last 3' nucleoside missing) | 0
19 | RNA1{[moe](T)[sp].[moe]([m5C])p.[moe](T)p.[moe](A)p.[moe](T)[sp].d(G)[sp].d(T)[sp].d(T)[sp].d(T)[sp].d(T)[sp].d([m5C])[sp].d([m5C])[sp].d(A)[sp].[moe](G)p.[moe](T)p.[moe](G)[sp].[moe]([m5C])}$$$$ (last 3' nucleoside missing) | 0
20 | RNA1{[moe](G)[sp].[moe](T)p.[moe](G)p.[moe](T)p.[moe]([m5C])p.[moe](A)p.d(T)[sp].d(A)[sp].d(A)[sp].d(T)[sp].d(T)[sp].d(T)[sp].d(T)[sp].d([m5C])[sp].d(T)[sp].d(T)[sp].[moe](A)p.[moe](G)[sp].[moe]([m5C])}$$$$ (last 3' nucleoside missing) | 0
21 | RNA1{[moe](G)[sp].[moe]([m5C])p.[moe]([m5C])p.[moe](A)p.[moe](A)[sp].d(G)[sp].d(G)[sp].d(G)[sp].d(T)[sp].d(A)[sp].d(T)[sp].d(T)[sp].d(G)[sp].d(A)[sp].d(T)[sp].[moe](T)p.[moe](A)p.[moe](G)[sp].[moe]([m5C])}$$$$ (last 3' nucleoside missing) | 3.5
22 | RNA1{[moe](T)[sp].[moe](G)p.[moe](T)p.[moe]([m5C])p.[moe](A)p.d(T)[sp].d(A)[sp].d(A)[sp].d(T)[sp].d(T)[sp].d(T)[sp].d(T)[sp].d([m5C])[sp].d(T)[sp].[moe](T)p.[moe](A)p.[moe](G)[sp].[moe]([m5C])}$$$$ (last 3' nucleoside missing) | 0
23 | RNA1{[moe]([m5C])[sp].[moe](T)p.[moe](A)p.d(T)[sp].d(G)[sp].d(T)[sp].d(T)[sp].d(T)[sp].d(T)[sp].d([m5C])[sp].d([m5C])[sp].d(A)[sp].d(G)[sp].[moe](T)p.[moe](G)p.[moe]([m5C])p.[moe]([m5C])p.[moe]([m5C])[sp].[moe](A)}$$$$ (last 3' nucleoside missing) | 0.25
24 | RNA1{[moe](G)[sp].[moe]([m5C])p.[moe](T)p.[moe](T)p.[moe](A)p.d(T)[sp].d(T)[sp].d(A)[sp].d(T)[sp].d(T)[sp].d([m5C])[sp].d(A)[sp].d(T)[sp].d(G)[sp].[moe](T)[sp].[moe](T)p.[moe]([m5C])p.[moe](T)}$$$$ (last 3' nucleoside missing) | 1
25 | RNA1{[moe]([m5C])[sp].[moe](T)p.[moe](G)p.[moe]([m5C])p.[moe]([m5C])[sp].d(T)[sp].d(T)[sp].d(A)[sp].d(A)[sp].d(T)[sp].d(T)[sp].d(A)[sp].d([m5C])[sp].d([m5C])[sp].d(T)[sp].[moe](A)p.[moe](T)p.[moe](A)[sp].[moe](G)}$$$$ (last 3' nucleoside missing) | 0.25
26 | RNA1{[moe](T)[sp].[moe](G)p.[moe](G)p.[moe]([m5C])p.[moe](A)[sp].d([m5C])[sp].d(T)[sp].d(T)[sp].d(T)[sp].d([m5C])[sp].d(T)[sp].d(T)[sp].d(T)[sp].d(T)[sp].d(T)[sp].[moe](A)p.[moe](T)p.[moe](T)[sp].[moe](T)}$$$$ (last 3' nucleoside missing) | 0
